Source: PMC4546618, “Casitas B-Lineage Lymphoma RING Domain Inhibitors Protect Mice against High-Fat Diet-Induced Obesity and Insulin Resistance” (PLoS ONE, 2015)
Like-named read-outs stand apart in the source and are kept apart here. Where a SMILES comes first, the peptide text is derived from it. [ ]: non-standard residue; d: D form. Pro(trans-4-F) = O=C(O)[C@@H]1C[C@@H](F)CN1; Phe(3-F) = N[C@@H](Cc1cccc(F)c1)C(=O)O; Phg = N[C@H](C(=O)O)c1ccccc1; Thz = O=C(O)[C@@H]1CSCN1

Experiments:
mice fed a high-fat diet [1] = assay: Glucose tolerance test after 12 weeks of treatment on high-fat diet; type: in vivo; conditions: overnight fasted mice, 2 g/kg glucose i.p., after 12 weeks daily i.p. 5 mg/kg on high-fat diet
Procedure: (§1) All experiments were approved by the institutional Animal Care and Use Committee (Chengdu Medical College, China). All experiments were carried out in 10-week-old male mice maintained on the C57BL/6 background. All the animals were kept on a 12-h light/dark cycle with free access to food and water.
(§2) Animals (n = 90) were randomly assigned to one of the nine groups (Table 1). Animals were fed ad libitum with a high-fat diet (60% of caloric intake from fat (70% saturated fat), 20% from carbohydrates, and 20% from protein) before experiments and for another 12 weeks during the experiments. Food intake was measured manually on a daily basis. Eight groups of animals were treated with indicated peptides with a daily i.p. injection at 5 mg/kg and one group of animals were treated with vehicle.
After receiving 12 weeks of treatment as described above, glucose tolerance tests were performed in overnight fasted mice. Each mouse received a 2 g/kg glucose through i.p. Blood samples were obtained from the tail tip at 0, 30, 60, 90, and 120 min. Insulin concentrations were measured using mouse insulin Elisa kits (ChrystalChem) using mouse standards. Glucose levels were measured using a glucometer (Roche).

mice = assay: Acute toxicity in mice; type: in vivo; conditions: up to 15 mg/kg i.p.; for signs of acute toxicity: 72 hours; for death of animals: another 14 days following the initial examination; for H&E staining of livers, spleens and kidneys: end of experiment
Procedure: as §1
The control group (n = 10) received vehicle only. Eight groups (10 mice each) were treated with increasing doses of either peptide 1, 3, 10, 34, 2, 60, 49, and 51 up to 15 mg/kg by i.p. Number of death, sedation, spontaneous motor activity, alertness, ptosis, dyspnea, convulsion, diarrhea, urination, postural reflex, piloerection, nociception, grooming, vocalization, rearing, climbing and aggression were observed every 12 hours for 72 h. Animals were maintained for another 14 days after the initial examination. We planned to sacrifice the animals if they show severe signs of pain or distress, a body weight loss in excess of 15% of its body weight, or a deterioration of the body condition score to BC2(-) or below. However, none of the animals qualified for the mentioned the symptoms. No animals died during the whole study. At the end of the experiment, animals were euthanized by CO2 asphyxiation followed by cervical dislocation, the livers, spleens and kidneys were collected and formalin-fixed paraffin-embedded for H&E staining.

mice fed a high-fat diet [2] = assay: High-fat diet-induced obesity: body weight, food intake, body composition, adipocyte volume; type: in vivo; conditions: daily i.p. 5 mg/kg; for percentage of perigonadal fat mass / adipocyte volume: 12 weeks; for percentage of perigonadal fat mass: NMR, vehicle 8 ± 0.8%; for adipocyte volume: adipocytes from epididymal fat pad, vehicle 510 ± 42 pL; for body weight gain vs vehicle, parental and negative control peptide groups: 12-week feeding period
Procedure: as §1, §2
Body composition was measured using nuclear magnetic resonance (NMR) technology at Chengdu College core facility. Epididymal fat pads were excised and adipocytes were isolated. Cells were then fixed using 2% OsO4 in PBS overnight at 37°C [2].

mice fed a high-fat diet [3] = assay: Indirect energy expenditure and physical activity measurement; type: in vivo; conditions: after 12 weeks daily i.p. 5 mg/kg on high-fat diet; for Oxygen consumption VO2: vehicle 4.15 ± 0.55; for Ambulatory day activity / Ambulatory night activity: photobeam break counts; for Ambulatory day activity: vehicle 2,069 ± 705; for Ambulatory night activity: vehicle 6,289 ± 1,216
Procedure: as §1, §2
After receiving 12 weeks of treatment as described above, rates of oxygen consumption (VO2) was measured using a four-chamber indirect calorimeter (Langguan, China, air flow of 0.5 l/min). A total of 2-hour measurement for each animal was conducted at 15-minuate intervals under room temperature (22°C). Ambulatory activity was estimated by counting the number of photobeam breaks in a three-sensor chamber instrument (Rui Pharm, China), and the cumulative ambulatory activity counts were recorded every hour. A total of 12 h-day time and 12 h-night activity were recorded for each animal.

[4] = Pharmacokinetic studies, plasma concentration after i.p. injection; type: in vivo; conditions: mice, i.p. 4 mg/kg; for Cmax: male, C57BL/6, mouse, plasma, ip, read-out: maximum concentration in plasma; for plasma concentrations compared to the parental peptides 1 and 2: at each time point after 1 hour
Procedure: as §1
Peptides (1, 3, 10, 34, 2, 60, 49, and 51) were dissolved in sterile aqueous 5% dextrose and administered to mice by i.p. injection (4 mg/kg). Blood samples were collected from the tail tip at 0, 0.5, 1, 6, 12, 18, 24 and 48 hours. Plasma samples were harvested by centrifugation and stored at -80°C until assayed. Peptide concentrations in plasma were determined by Reversed-Phase High-Performance Liquid Chromatography (RP-HPLC) with electrospray ionization mass spectrometric ([…]) detection. Samples were assayed with a series of 8 calibration standards of peptide in plasma at concentrations ranging from 50 to 6000 μg/L. Peptide concentrations were determined by comparing to the standards.

Cbl (RING) protein = target: T1, Cbl (RING) protein (Homo sapiens, UniProt P22681); assay: Fluorescence polarization (FP) assay, competition with FITC-βA-PFKPP-NH2 probe; type: binding; conditions: probe FITC-βA-PFKPP-NH2 100 nmol/L, Cbl (RING) protein 3 μmol/L, PBS pH 7.4
T1 construct: including the linker and RING domain (codon 358–457); GST (Glutathione S-Transferase); made in house
T1 sequence (P22681 358-457): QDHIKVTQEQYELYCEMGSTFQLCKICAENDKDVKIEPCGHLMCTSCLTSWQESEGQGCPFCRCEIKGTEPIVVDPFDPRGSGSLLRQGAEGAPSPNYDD
Procedure: Peptides and peptide mimetics were purchased from MitenChem (China) with a purity ≥ 98%. Concentrations values of reconstituted peptides were determined by amino acid analysis at the protein core facility (Chengdu Medical College). The recombinant Cbl protein was produced by the Chengdu Medical College Protein Core Facility and was described previously. The c-Cbl (RING) protein, including the linker and RING domain (codon 358–457), was tagged with Glutathione S-Transferase (GST) and purified with GSH-Sepharose (Shanghai Biopharma).
The FP assay was developed and validated previously. Briefly, fluorescein-labeled probe (FITC-βA-PFKPP-NH2, 100 nmol/L) and Cbl (RING) protein (3 μmol/L) were mixed and diluted to the final concentration using 0.01% Triton X-100 in PBS (pH = 7.4). Then, 19 μl of this master mix was loaded to each reaction well. The peptides or peptide mimetics were then loaded to the designated wells (1 μl, 10 μmol/L– 0.078 μmol/L, half-fold dilutions). The total fluorescence and polarization values were measured at an excitation wavelength of 485 nm and an emission wavelength of 538 nm using a ZS-2 plate reader. The data was fitted, and the ΔmP, Kd, and Ki values were estimated, using SigmaPlot 11.0.

CC(=O)N1CCC[C@H]1C(=O)N[C@H](C(=O)N[C@@H](CCCCN)C(=O)N1CCC[C@H]1C(=O)N1CCC[C@H]1C(N)=O)c1ccccc1 [Peptide 3, Ac-P(a)KPP-NH2] (Ac-P[Phg]KPP-NH2)
glucose tolerance compared to the vehicle group (mice fed a high-fat diet [1]): not statistically significant
signs of acute toxicity (mice): did not show vital signs of acute toxicity
death of animals (mice): None of the animals died
H&E staining of livers, spleens and kidneys (mice): does not show any sign of injuries
percentage of perigonadal fat mass (mice fed a high-fat diet [2]): 7.1 ± 0.4%
adipocyte volume (mice fed a high-fat diet [2]): 505 ± 34 pL
Oxygen consumption VO2 (mice fed a high-fat diet [3]): 3.78 ± 0.29 mL/g/h
Ambulatory day activity (mice fed a high-fat diet [3]): 2,158 ± 763 per 12 h
Ambulatory night activity (mice fed a high-fat diet [3]): 6,058 ± 1,298 per 12 h
Cmax ([4]; observed in 60 min): 4020 ng/mL
plasma concentrations compared to the parental peptides 1 and 2 [4]: greater plasma concentrations
Ki (Cbl (RING) protein): > 500000 nM

CC(=O)N1CCC[C@H]1C(=O)N[C@@H](Cc1cccc(F)c1)C(=O)N[C@@H](CCCCN)C(=O)N1CCC[C@H]1C(=O)N1CCC[C@H]1C(N)=O [Peptide 10, Ac-P(h)KPP-NH2] (Ac-P[Phe(3-F)]KPP-NH2)
blood insulin levels compared to the vehicle group (mice fed a high-fat diet [1]): significant reduction in blood insulin levels
glucose tolerance compared to the vehicle group (mice fed a high-fat diet [1]): better glucose tolerance
signs of acute toxicity (mice): did not show vital signs of acute toxicity
death of animals (mice): None of the animals died
H&E staining of livers, spleens and kidneys (mice): does not show any sign of injuries
body weight gain vs vehicle, parental and negative control peptide groups (mice fed a high-fat diet [2]): significant differences in body weight gain
percentage of perigonadal fat mass (mice fed a high-fat diet [2]): 3.5 ± 0.5%
adipocyte volume (mice fed a high-fat diet [2]): 295 ± 31 pL
Oxygen consumption VO2 (mice fed a high-fat diet [3]): 5.92 ± 0.36 mL/g/h
Ambulatory day activity (mice fed a high-fat diet [3]): 3,512 ± 923 per 12 h
Ambulatory night activity (mice fed a high-fat diet [3]): 12,896 ± 2,469 per 12 h
Cmax ([4]; observed in 60 min): 4520 ng/mL
plasma concentrations compared to the parental peptides 1 and 2 [4]: greater plasma concentrations
Ki (Cbl (RING) protein): 1800 ± 800 nM

CC(=O)N1CSC[C@H]1C(=O)N[C@@H](Cc1cccc(F)c1)C(=O)N[C@@H](CCCCN)C(=O)N1CCC[C@H]1C(=O)N1CCC[C@H]1C(N)=O [Peptide 34, Ac-(r) (h)KPP-NH2] (Ac-[Thz][Phe(3-F)]KPP-NH2)
blood insulin levels compared to the vehicle group (mice fed a high-fat diet [1]): significant reduction in blood insulin levels
glucose tolerance compared to the vehicle group (mice fed a high-fat diet [1]): better glucose tolerance
signs of acute toxicity (mice): did not show vital signs of acute toxicity
death of animals (mice): None of the animals died
H&E staining of livers, spleens and kidneys (mice): does not show any sign of injuries
body weight gain vs vehicle, parental and negative control peptide groups (mice fed a high-fat diet [2]): significant differences in body weight gain
percentage of perigonadal fat mass (mice fed a high-fat diet [2]): 3.0 ± 0.9%
adipocyte volume (mice fed a high-fat diet [2]): 258 ± 29 pL
Oxygen consumption VO2 (mice fed a high-fat diet [3]): 5.88 ± 0.85 mL/g/h
Ambulatory day activity (mice fed a high-fat diet [3]): 3,485 ± 864 per 12 h
Cmax ([4]; observed in 60 min): 5020 ng/mL
plasma concentrations compared to the parental peptides 1 and 2 [4]: greater plasma concentrations
Ki (Cbl (RING) protein): 1500 ± 400 nM

CC(=O)N[C@@H](CCCCN)C(=O)N1CSC[C@H]1C(=O)N[C@@H](C)C(=O)N[C@H](C(=O)N[C@@H](CCCCN)C(N)=O)[C@@H](C)O [Peptide 49, Ac-K(r)ATK-NH2] (Ac-K[Thz]ATK-NH2)
blood insulin levels compared to the vehicle group (mice fed a high-fat diet [1]): significant reduction in blood insulin levels
glucose tolerance compared to the vehicle group (mice fed a high-fat diet [1]): better glucose tolerance
signs of acute toxicity (mice): did not show vital signs of acute toxicity
death of animals (mice): None of the animals died
H&E staining of livers, spleens and kidneys (mice): does not show any sign of injuries
body weight gain vs vehicle, parental and negative control peptide groups (mice fed a high-fat diet [2]): significant differences in body weight gain
percentage of perigonadal fat mass (mice fed a high-fat diet [2]): 3.9 ± 0.4%
adipocyte volume (mice fed a high-fat diet [2]): 230 ± 38 pL
Oxygen consumption VO2 (mice fed a high-fat diet [3]): 6.12 ± 0.58 mL/g/h
Ambulatory day activity (mice fed a high-fat diet [3]): 4,012 ±1,207 per 12 h
Ambulatory night activity (mice fed a high-fat diet [3]): 20,126 ± 2,914 per 12 h
Cmax ([4]; observed in 60 min): 4680 ng/mL
plasma concentrations compared to the parental peptides 1 and 2 [4]: greater plasma concentrations
Ki (Cbl (RING) protein): 2900 ± 1200 nM

CC(=O)N[C@@H](CCCCN)C(=O)N1C[C@H](F)C[C@H]1C(=O)N[C@@H](C)C(=O)N[C@@H](CC(C)C)C(=O)N[C@@H](CCCCN)C(N)=O [Peptide 60, Ac-K(t)ALK-NH2] (Ac-K[Pro(trans-4-F)]ALK-NH2)
signs of acute toxicity (mice): did not show vital signs of acute toxicity
death of animals (mice): None of the animals died
H&E staining of livers, spleens and kidneys (mice): does not show any sign of injuries
percentage of perigonadal fat mass (mice fed a high-fat diet [2]): 7.8 ± 0.7%
adipocyte volume (mice fed a high-fat diet [2]): 520 ± 26 pL
Oxygen consumption VO2 (mice fed a high-fat diet [3]): 4.16 ± 0.29 mL/g/h
Ambulatory day activity (mice fed a high-fat diet [3]): 2,025 ± 945 per 12 h
Ambulatory night activity (mice fed a high-fat diet [3]): 5,993 ± 1,278 per 12 h
Cmax ([4]; observed in 60 min): 4280 ng/mL
plasma concentrations compared to the parental peptides 1 and 2 [4]: greater plasma concentrations
Ki (Cbl (RING) protein): 228000 ± 20200 nM

Ac-KPATK-NH2 [Peptide 2, Ac-KPATK-NH2]
signs of acute toxicity (mice): did not show vital signs of acute toxicity
death of animals (mice): None of the animals died
H&E staining of livers, spleens and kidneys (mice): does not show any sign of injuries
percentage of perigonadal fat mass (mice fed a high-fat diet [2]): 6.7 ± 0.5%
adipocyte volume (mice fed a high-fat diet [2]): 440 ± 58 pL
Oxygen consumption VO2 (mice fed a high-fat diet [3]): 4.22 ± 0.42 mL/g/h
Ambulatory day activity (mice fed a high-fat diet [3]): 2,342 ±1,002 per 12 h
Ambulatory night activity (mice fed a high-fat diet [3]): 6,721 ± 1,032 per 12 h
Cmax ([4]; observed in 30 min): 3370 ng/mL
Ki (Cbl (RING) protein): 4700 ± 1200 nM
